Assay results reported in patent publication US9783522B2, “2-amino-pyridine and 2-amino-pyrimidine derivatives and medicinal use thereof” (MITSUBISHI TANABE PHARMA CORPORATION, priority 2014, dated 2017).

target: T1, ATX activity in plasma (Rattus norvegicus, UniProt Q64610); experiment: Measurement of ATX activity in plasma (ex vivo) after oral administration to rats; conditions: male Wistar rat, 8 hr after administration, plasma ATX activity vs solvent control
T1 construct: from tissue; host or cells: plasma of male Wistar rats after oral dosing (ex vivo)
Procedure: A compound administration solution prepared by wet pulverization in a mixer mill (type: MM400) for 10 min and adjusting to a given concentration with 0.5% aqueous carboxymethylcellulose solution was orally administered to male Wistar rat (5-week-old when used) at 5 mL/kg. Blood samples were collected from the cervical vein over time at 8 to 24 hr after administration. The blood was heparin-treated using a micro blood collection tube Capiject (CJ-AL, TERUMO CORPORATION), and the plasma was separated by centrifugation (4° C., 12,000 rpm, 2 min), and preserved at −80° C. The rats after blood sampling were euthanized by exsanguination from the caudal vena cava under isoflurane inhalation anesthesia. The measurement of ATX activity in plasma was evaluated using the concentration of choline in the plasma, which was liberated from lysophosphatidylcholine (substrate of ATX) by the lysophospholipase D activity of ATX, as an index. An equal amount of 2× assay buffer (200 mM Tris-HCl pH9.0, 10 mM MgCl2, 1 M NaCl, 0.1% Triton X-100) is added to plasma (12 μL) and reacted at 37° C. for 6 hr. The reaction mixture (10 μL) after reaction for 6 hr and 45 μL of reagent R1 solution (100 mM Tris-HCl pH 8.0, 0.5 mM TOOS, 10 U/mL peroxidase, 0.01% Triton X-100) were added and blended and absorbance at 550-700 nm was measured and used as a prevalue. As the standard, choline chloride was used. 1 mM choline chloride was diluted with 2× assay buffer up to 7 steps in 2-fold serial dilution, R1 solution was treated similarly and the absorbance was measured. Furthermore, 15 μL of reagent R2 solution (100 mM Tris-HCl pH 8.0, 1 mM 4-aminoantipyrine, 10 U/mL choline oxidase, 0.01% Triton X-100) was added, and the mixture was reacted at room temperature for 10 min, and absorbance at 550-700 nm was measured. The choline concentration per reaction time was calculated from the difference between the absorbance after R2 solution addition and prevalue measured before R2 addition and used as ATX activity value. inhibitory activity (%)=100×{1-[choline concentration (μM) of test substance administration group/choline concentration (μM) of solvent control group]} <calculating formula>

Compound	Experimental Example 2 rat single administration test (inhibitory activity (%) at 8 hr after 1 mg/kg oral administration) [%]
COc1ccc(-c2cnc(NCc3cccc(OC(F)(F)F)c3)nc2)cc1C(=O)O [Example 156]	82
COc1c(C#N)cc(-c2ccc(NCc3cccc(OC(F)(F)F)c3)nc2)cc1CCC(=O)O [Example 10, 3-{3-cyano-2-methoxy-5-[6-(3-trifluoromethoxy-benzylamino)-pyridin-3-yl]-phenyl}-propionic acid]	84
COc1c(C#N)cc(-c2cnc(NCc3cccc(OC(F)(F)F)c3)nc2)cc1CCC(=O)O [Example 85]	88
COc1ccc(-c2cnc(NCc3cccc(OC(F)(F)F)c3)nc2)nc1[C@H]1C[C@@H]1C(=O)O [17 (compound 4a), (1S,2S)-2-{3-methoxy-6-[2-(3-trifluoromethoxy-benzylamino)-pyrimidin-5-yl]-pyridin-2-yl}-cyclopropanecarboxylic acid]	88

target: human recombinant ATX (Homo sapiens, UniProt Q13822); experiment: Enzyme inhibitory test (choline release from LPC, fluorescence); format: biochemical; conditions: LPC substrate, room temperature 1 hr, read-out: Experimental Example 1 human ATX IC50
Procedure: A mixture (10 μL) of substrate and a set of choline quantification reagents (200 μM LPC (1-Oleoyl-sn-glycero-3-phosphocholine Sigma #L1881), 25 μM Amplex UltraRed reagent (Invitrogen), 0.1 U/mL Peroxidase (TOYOBO), 1 U/mL Choline oxidase (TOYOBO)), prepared with assay buffer (50 mM Tris (pH 8.0), 140 mM NaCl, 5 mM KCl, 1 mM CaCl2, 1 mM MgCl2, 0.1% BSA (Albumin from bovine serum, SIGMA), 0.0025% Triton X-100), enzyme (0.4 ng/μL human recombinant ATX) (10 μL), compound-containing solution (100 nL) were dispensed to a 384-well plate, incubated at room temperature for 1 hr and the fluorescence (Ex.525 nm/Em.598 nm) was measured. As the standard, choline chloride was used. With a blank free of enzyme was taken as inhibitory rate 100%, and a control free of inhibitor as inhibitory rate 0%, the inhibitory rate was calculated, and IC50 value was calculated from the inhibitory activity percentage at each concentration.

Compound	IC50 [nM]
COc1ccc(-c2cnc(NCc3cccc(OC(F)(F)F)c3)nc2)cc1C(=O)O [Example 156]	93
COc1ccc(-c2ccc(NCc3cccc(OC(F)(F)F)c3)nc2)cc1C(=O)O [Example 34, 2-methoxy-5-[6-(3-trifluoromethoxy-benzylamino)-pyridin-3-yl]-benzoic acid]	83
COCCn1nc(C(=O)O)c2cc(-c3ccc(NCc4cccc(OC(F)(F)F)c4)nc3)ccc21 [Example 73]	9
COc1ccc(-c2ccc(NCc3cccc(OC(F)(F)F)c3)nc2)nc1[C@H]1C[C@@H]1C(=O)O [16 (compound 1a), (1S,2S)-2-[5-methoxy-6′-(3-trifluoromethoxy-benzylamino)-[2,3′]bipyridinyl-6-yl]-cyclopropanecarboxylic acid]	2
COc1c(C#N)cc(-c2ccc(NCc3cccc(OC(F)(F)F)c3)nc2)cc1CCC(=O)O [Example 10, 3-{3-cyano-2-methoxy-5-[6-(3-trifluoromethoxy-benzylamino)-pyridin-3-yl]-phenyl}-propionic acid]	17
COc1c(CCC(=O)O)cc(-c2ccc(NCc3cccc(OC(F)(F)F)c3)nc2)cc1C1COC1 [Example 92]	23
COc1c(C#N)cc(-c2ccc(NCc3cccc(OC(F)(F)F)c3)nc2)cc1C(=O)O [Example 63]	25
O=C(O)c1cc(-c2cnc(NCc3cccc(OC(F)(F)F)c3)nc2)cc(OC2CNC2)c1Cl [Example 30, 3-(azetidin-3-yloxy)-2-chloro-5-[2-(3-trifluoromethoxy-benzylamino)-pyrimidin-5-yl]-benzoic acid]	22
COc1ccc(-c2ccc(NCc3cccc(C(C)C)c3)nc2)cc1C(=O)O [Example 176]	47
COc1ccc(-c2ccc(NCc3cccc(OC(F)(F)F)c3)nc2)cc1CC(=O)O [Example 109]	12
CS(=O)(=O)CCCn1nc(C(=O)O)c2cc(-c3ccc(NCc4cccc(OC(F)(F)F)c4)nc3)ccc21 [Example 75]	6
O=C(O)CN1CCN(c2ccc(-c3ccc(NCc4cccc(OC(F)(F)F)c4)nc3)cc2F)C1=O [Example 44]	75
COc1c(C#N)cc(-c2ccc(NCc3cccc(OC(F)(F)F)c3)nc2)cc1C(C)(C)C(=O)O [Example 26, 2-{3-cyano-2-methoxy-5-[6-(3-trifluoromethoxy-benzylamino)-pyridin-3-yl]-phenyl}-2-methyl-propionic acid]	15
Cn1nc(C(=O)O)c2cc(-c3ccc(NCc4cccc(OC(F)(F)F)c4)nc3)ccc21 [Example 7, 1-methyl-5-[6-(3-trifluoromethoxy-benzylamino)-pyridin-3-yl]-1H-indazole-3-carboxylic acid]	3
COc1c(C#N)cc(-c2cnc(NCc3cccc(OC(F)(F)F)c3)nc2)cc1CCC(=O)O [Example 85]	7
Cn1nc(C(=O)O)c2cc(-c3cnc(NCc4cccc(OC(F)(F)F)c4)nc3)ccc21 [Example 74]	3
O=C(O)c1cccc2nc(-c3ccc(NCc4cccc(OC(F)(F)F)c4)nc3)[nH]c12 [Example 2, 2-[6-(3-trifluoromethoxy-benzylamino)-pyridin-3-yl]-3H-benzimidazole-4-carboxylic acid]	46

Compound	IC50 [nM]
COc1cc(-c2ccc(NCc3cccc(OC(F)(F)F)c3)nc2)ccc1C1CC1C(=O)O (stereo not shown) [Example 88]	20
COc1cc(-c2ccc(NCc3cccc(OC(F)(F)F)c3)nc2)ccc1OC[C@H]1CC[C@H](C(=O)O)CC1 [Example 126]	92
O=C(O)c1cc(-c2cnc(NCc3cccc(OC(F)(F)F)c3)nc2)cc(OC2CCOCC2)c1Cl [Example 133]	10
COc1ccc(-c2cnc(NCc3cccc(OC(F)(F)F)c3)nc2)nc1[C@H]1C[C@@H]1C(=O)O [17 (compound 4a), (1S,2S)-2-{3-methoxy-6-[2-(3-trifluoromethoxy-benzylamino)-pyrimidin-5-yl]-pyridin-2-yl}-cyclopropanecarboxylic acid]	2
COc1ccc(-c2ccc(NCc3cccc(OC(F)(F)F)c3)nc2)c2[nH]nc(C(=O)O)c12 [Example 69]	10
COCCOc1cc(-c2cnc(NCc3cccc(OC(F)(F)F)c3)nc2)cc(C(=O)O)c1Cl [Example 132]	15
COc1c(C(=O)O)cc(-c2cnc(NCc3cccc(OC(F)(F)F)c3)nc2)cc1-c1ccoc1 [Example 140]	31
COc1ccc(-c2ccc(NCc3cccc(OC(F)(F)F)c3)nc2)cc1OCC(=O)O [Example 129]	43
O=C(O)CCc1cc(-c2cnc(NCc3cccc(OC(F)(F)F)c3)nc2)ccc1Cl [Example 11, 3-{2-chloro-5-[2-(3-trifluoromethoxy-benzylamino)-pyrimidin-5-yl]-phenyl}-propionic acid]	13
COc1cc(-c2ccc(NCc3cccc(OC(F)(F)F)c3)nc2)cc(OC)c1CCC(=O)O [Example 98]	7
O=C(O)c1ccc2nc(-c3ccc(NCc4cccc(OC(F)(F)F)c4)nc3)oc2c1 [Example 3, 2-[6-(3-trifluoromethoxy-benzylamino)-pyridin-3-yl]-benzoxazole-6-carboxylic acid]	35
COc1ccc(-c2cnc(NCc3cccc(OC(F)(F)F)c3)nc2)cc1CCC(=O)O [Example 21, 3-{2-methoxy-5-[2-(3-trifluoromethoxy-benzylamino)-pyrimidin-5-yl]-phenyl}-propionic acid]	37
COc1c(Cn2ccnc2)cc(-c2ccc(NCc3cccc(OC(F)(F)F)c3)nc2)cc1C(C)(C)C(=O)O [Example 108]	24
COc1c(C(=O)O)cc(-c2cnc(NCc3cccc(OC(F)(F)F)c3)nc2)cc1-c1ccncc1 [Example 33, 2-methoxy-3-pyridin-4-yl-5-[2-(3-trifluoromethoxy-benzylamino)-pyrimidin-5-yl]-benzoic acid]	10
O=C(O)c1cc(-c2cnc(NCc3cccc(OC(F)(F)F)c3)nc2)cc(OC2COC2)c1Cl [Example 136]	31
COc1ccc(-c2ccc(NCc3cccc(OC(F)(F)F)c3)nc2)cc1CCC(=O)O [Example 22, 3-{2-methoxy-5-[6-(3-trifluoromethoxy-benzylamino)-pyridin-3-yl]-phenyl}-propionic acid]	33
